Target: Angiotensin-converting enzyme (Homo sapiens, UniProt P12821)
Assay: Enzyme Inhibition Assay
Conditions: pH 6.8; 25 °C
Protocol: Continuous assays were performed by recording the fluorescence increase at 405 nm (excitation@ 320 nm) induced by the cleavage of fluorogenic substrate, using 96-well nonbinding surface plates. Fluorescence signals were monitored using a Fluoroscan Ascent photon counter spectrophotometer (Thermo-Labsystems, Courtaboeuf, France) equipped with a temperature control device and a plate shaker. The substrate and enzyme concentrations for the experiments were chosen so as to remain well below 10% of substrate utilization and to observe initial rates. For each inhibitor, percentage inhibition was determined in triplicate experiments at five inhibitor concentrations, chosen to observe a 20-80% range of inhibition. Ki values were determined using the method proposed by Horovitz and Leviski, as described in Proc. Natl. Acad. Sci. U.S.A. 1987, 84, 6654.

Sequence of Angiotensin-converting enzyme (P12821 whole entry): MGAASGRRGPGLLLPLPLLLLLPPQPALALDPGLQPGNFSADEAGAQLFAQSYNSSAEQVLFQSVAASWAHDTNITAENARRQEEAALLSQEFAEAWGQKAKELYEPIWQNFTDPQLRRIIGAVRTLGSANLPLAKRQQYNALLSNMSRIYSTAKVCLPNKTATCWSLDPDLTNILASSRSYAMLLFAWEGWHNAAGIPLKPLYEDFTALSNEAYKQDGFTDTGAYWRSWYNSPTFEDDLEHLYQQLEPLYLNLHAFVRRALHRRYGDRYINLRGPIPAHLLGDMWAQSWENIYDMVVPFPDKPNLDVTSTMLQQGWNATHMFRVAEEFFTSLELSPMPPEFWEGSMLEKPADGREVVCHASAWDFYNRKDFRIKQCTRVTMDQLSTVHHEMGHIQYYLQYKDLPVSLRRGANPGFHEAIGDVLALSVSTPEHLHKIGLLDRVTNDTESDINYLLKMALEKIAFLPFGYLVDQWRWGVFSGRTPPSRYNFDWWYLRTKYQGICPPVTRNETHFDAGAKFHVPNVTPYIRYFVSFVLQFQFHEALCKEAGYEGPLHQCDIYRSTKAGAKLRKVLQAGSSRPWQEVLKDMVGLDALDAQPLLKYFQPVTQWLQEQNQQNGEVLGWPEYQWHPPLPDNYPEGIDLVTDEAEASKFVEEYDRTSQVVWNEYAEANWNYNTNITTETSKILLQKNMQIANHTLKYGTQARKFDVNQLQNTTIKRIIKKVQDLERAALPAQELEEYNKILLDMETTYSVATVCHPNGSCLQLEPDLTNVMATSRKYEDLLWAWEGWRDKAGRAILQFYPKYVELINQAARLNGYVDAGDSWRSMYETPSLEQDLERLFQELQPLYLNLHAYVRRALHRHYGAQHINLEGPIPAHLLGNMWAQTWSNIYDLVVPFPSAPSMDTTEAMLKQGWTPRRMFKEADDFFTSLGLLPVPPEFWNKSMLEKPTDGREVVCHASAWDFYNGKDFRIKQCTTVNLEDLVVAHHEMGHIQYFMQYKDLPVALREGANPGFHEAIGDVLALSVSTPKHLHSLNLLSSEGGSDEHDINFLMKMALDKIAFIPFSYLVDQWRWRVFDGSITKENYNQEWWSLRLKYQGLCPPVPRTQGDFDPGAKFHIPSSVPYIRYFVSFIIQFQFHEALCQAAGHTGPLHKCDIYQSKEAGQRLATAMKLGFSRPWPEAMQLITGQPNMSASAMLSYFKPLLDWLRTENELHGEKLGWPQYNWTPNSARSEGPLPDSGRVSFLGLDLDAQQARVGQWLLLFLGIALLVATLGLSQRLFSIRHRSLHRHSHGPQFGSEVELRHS

Ki	SMILES
> 10 µM	CC(=O)NC(Cc1c[nH]cn1)C(=O)N1CCCC1P(=O)(O)CC(Cc1cc(-c2ccccc2)no1)C(=O)O (centres undefined) [3-({1-[2-acetamido-3-(1H-imidazol-4-yl)propanoyl]pyrrolidin-2-yl}(hydroxy)phosphoryl)-2-[(3-phenyl-1,2-oxazol-5-yl)methyl]propanoic acid]
> 10 µM	CC(=O)NC(CC(C)C)C(=O)N1CCCC1P(=O)(O)CC(Cc1cc(-c2ccccc2)no1)C(=O)O (centres undefined) [3-{[1-(2-acetamido-4-methylpentanoyl)pyrrolidin-2-yl](hydroxy)phosphoryl}-2-[(3-phenyl-1,2-oxazol-5-yl)methyl]propanoic acid]
> 10 µM	CC(=O)NC(CC(C)C)C(=O)N1CCCC1P(=O)(O)CC(Cc1ccccc1)C(=O)O (centres undefined) [The second fraction of the HPLC chromatogram.]
> 10 µM	CC(=O)NC(Cc1c[nH]cn1)C(=O)N1CCCC1P(=O)(O)CC(Cc1ccccc1)C(=O)O (centres undefined) [The second fraction of the HPLC chromatogram.]

— BindingDB's records for doi:10.1021/jm701275z (University of Athens, 2008)
